{"source": "patent US5334593A", "about": "“Anxiolytic drugs” (Yamasa Shoyu Kabushiki Kaisha, priority 1990, dated 1994)", "key": {"male ICR mice [1]": {"test_system": "male ICR mice", "experiment": "Anti-conflict activity (Vogel type conflict test)", "format": "in vivo, mouse (ICR)", "settings": "for number of water-drinking: 10 minutes", "description": "The method is described below.\nMale ICR mice (6 weeks old) were deprived of water for one day before the test. The mice were then individually placed in the test box, and given water ad libitum for 10 minutes. Thereafter, they were placed back in their home cages, given water ad libitum overnight, and again deprived of water for two days. The mice thus treated were used for the measurement.\nABU, the test compound, was suspended in physiological saline containing 0.5% CMC, and the suspension was administered intraperitoneally to the above mice. .On the other hand, as a positive control compound, DZP was administered in the same manner. Fifteen minutes after the administration,the mice were placed in the test box, and allowed to freely drink one count of water (one drop: approximately 40 ul ). Thereafter, a 50 V electric foot shock was given from the grid floor to the mice every time they drunk one count of water. Under such conditions, the number of water-drinking was counted over a period of 10 minutes. The number of water-drinking performed by a group of mice to which the test compound was administered was compared with that of water-drinking performed by a group of mice to which a vehicle (physiological saline containing 0.5% CMC and no test compound) was administered.\nThe significant difference was ascertained by the Mann-Whitney's U-test."}, "ICR mice": {"test_system": "ICR mice", "experiment": "Acute toxicity (intraperitoneal administration)", "format": "in vivo, mouse (ICR)", "settings": "one week", "description": "1-Amino-5-bromouracil (ABU) was suspended in physiological saline containing 0.5% carboxymethyl cellulose (CMC). ABU was administered intraperitoneally to 8 ICR mice in a dose of 500 mg/kg, and their lethality was observed over a period of one week.\nFurther, 1-amino-5-chlorouracil (ACU) was administered intraperitoneally to 10 male ICR mice in a dose of 357 mg/kg, and their lethality was observed over a period of one week."}, "male Wistar rats": {"test_system": "male Wistar rats", "experiment": "Anti-conflict activity (Geller type conflict test)", "format": "in vivo, rat (Wistar)", "settings": "for number of lever pressing during the alarm periods / number of lever pressing during the safety periods: one hour, vs control; for minimal effective dose: Rattus norvegicus, oral, from results of Test Example 1, read-out: Minimum Effective Dose for Anti-Conflict Activity [B]", "description": "The activities of the test compounds were evaluated by the Geller type conflict test which is frequently employed as a preclinical evaluation method of an anxiolytic drug [see Psychophamacologia, 1, 482-492 (1960 )]. The method is described below.\n1-Amino--5--chlorouracil (ACU) , 1-amino-5-bromouracil (ABU) and 1-amino-5-fluorouracil (AFU) were used as the test compounds. These compounds were respectively suspended in distilled water containing 0 . 5% carboxymethyl cellulose (CMC) to obtain suspensions suitable for oral administration. In addition, diazepam (DZP) serving as a positive control compound was also prepared as a suspension suitable for oral administration in the same manner.\nA skinner box (manufactured by OHARA & Co. , Ltd. ) used for the test was equipped with a lever, a light and a buzzer, and its floor was a grid made of stainless steel. When the lever was pressed, pellets (food) were supplied from a feeder, and, if necessary, an electric shock was given from the floor.\nMale Wistar rats were deprived of food during the night to restrain an increase in the body weight, and a training of the animals was started. After the number of lever pressing performed by the rats reached the predetermined level by following a reinforcement schedule in which food pellets were supplied once every ten times of lever pressing (FR-10) , two periods, that is, a 7-minute safety period and a 3-minute alarm period were alternately incorporated in the schedule - During the alarm period, the rats were signaled by the light and buzzer, and further by an electric shock given from the floor every time they were supplied with food pellets. Those rats which were trained to press the lever 19 times or less during the alarm period were used for the measurement. Immediately after a suspension of a test compound prepared in the above-described manner was administered orally to the rats, they were placed in the skinner box, and the numbers of lever pressing were counted over a period of one hour. The numbers thus obtained were compared with those obtained by the control wherein distilled water containing 0.5% CMC and no test compound was orally administered to the rats and the number of lever pressing was counted for one hour. The significant difference was ascertained by the Wilcoxoh's signed rank test. The results are shown in FIG. 1A, FIG. 1B, FIG. 1C, FIG. 2A and FIG. 2B.\nTo the rats used for the above test, no drugs were administered for one week, and then they were repeatedly used for the same test.\nFurther, the minimum effective dose (B) for anti-conflict activity of each of the above-described test compounds was determined on the basis of the results obtained in Test Example 1."}, "in vivo": {"experiment": "in vivo", "settings": "mouse, in vivo, po", "description": "(§1) The muscle relaxant activities of the test compounds, 1-amino-5-bromouracil(ABU), 1-amino--5-chlorouracil (ACU) and diazepam (DZP), were determined in accordance with the method of L. L. Coughenour et al. [see Pharmacol. Biochem. & Behav., 6, 351-353 (1977)].\n(§2) Male ICR mice were placed on a 13 cm×13 cm No. 4 wire screen, and the screen was then rotated by 180 degrees. Those mice which were able to return to the screen within one minute were referred to \"successful\" mice. The suspension of each test compound prepared in the same manner as in Test Example 1 was administered orally to the mice. The mice were then subjected to the above test. The dose of the test compound at which 50% of the mice successfully returned to the screen was determined as ED50 (A).\n(§3) Furthermore, the validity of each of the test compounds as an anxiolytic drug was expressed as A/B value."}, "male ICR mice [2]": {"test_system": "male ICR mice", "experiment": "Muscle relaxant activity (rotated wire screen test)", "settings": "muscle relaxant ED50 / minimum effective dose for anti-conflict activity", "description": "as §1, §2, §3"}, "[3]": {"experiment": "Acute toxicity (oral administration)", "settings": "mouse, in vivo, male ICR mice, Litchfield-Wilcoxon method", "description": "The acute toxicity (LD50 value) per oral administration was determined by the following method.\nThe test compound (1-amino-5-bromouracil (ABU) or 1-amino-5-chlorouracil (ACU) was suspended in distilled water containing 0.5% carboxymethyl cellulose (CMC). ABU or ACU was administered orally to male ICR mice (1 group: 10 mice) in a dose of 1000-2800 mg/kg or 500-1400 mg/kg, and the LD50 values were determined according to the Litchfield-Wilcoxon method. The results are shown in Table 2."}, "[4]": {"settings": "cited from earlier work"}}, "data": [{"smiles": "Nn1cc(Br)c(=O)[nH]c1=O", "note": "[ABU, 1-amino-5-bromouracil]", "values": [{"measurement": "sensitivity to an electric shock", "setting": "male ICR mice [1]; 20 mg/kg i.p.", "result": "no decrease in the sensitivity to an electric shock was noted"}, {"measurement": "number of water-drinking", "setting": "male ICR mice [1]; ABU 5, 10, 20 and 50 mg/kg i.p., significant only at 20 mg/kg", "result": "a significant increase in the number of water-drinking was noted only at the dose of 20 mg/kg"}, {"measurement": "lethality", "setting": "ICR mice; 500 mg/kg i.p., 8 ICR mice", "result": "no death was observed"}, {"measurement": "number of lever pressing during the alarm periods", "setting": "male Wistar rats; 10 mg/kg oral", "result": "significantly increased"}, {"measurement": "number of lever pressing during the safety periods", "setting": "male Wistar rats; 10 mg/kg oral", "result": "did not significantly change"}, {"measurement": "number of lever pressing during the alarm periods", "setting": "male Wistar rats; 30 mg/kg oral", "result": "significantly increased"}, {"measurement": "number of lever pressing during the safety periods", "setting": "male Wistar rats; 30 mg/kg oral", "result": "did not significantly change"}, {"measurement": "number of lever pressing during the alarm periods", "setting": "male Wistar rats; 50 mg/kg oral", "result": "significantly increased"}, {"measurement": "number of lever pressing during the safety periods", "setting": "male Wistar rats; 50 mg/kg oral", "result": "did not significantly change"}, {"measurement": "minimal effective dose", "setting": "male Wistar rats", "result": 10, "unit": "mg/kg"}, {"measurement": "ED50", "setting": "in vivo", "result": 74.1, "unit": "mg/kg"}, {"measurement": "Validity [A/B]", "setting": "male ICR mice [2]", "result": 7.4}, {"measurement": "LD50", "setting": "[3]", "result": 1920, "unit": "mg/kg"}]}, {"smiles": "Nn1cc(Cl)c(=O)[nH]c1=O", "note": "[ACU, 1-Amino--5--chlorouracil]", "values": [{"measurement": "lethality", "setting": "ICR mice; 357 mg/kg i.p., 10 male ICR mice", "result": "no death was observed"}, {"measurement": "number of lever pressing during the alarm periods", "setting": "male Wistar rats; 20 mg/kg oral", "result": "significantly increased"}, {"measurement": "number of lever pressing during the safety periods", "setting": "male Wistar rats; 20 mg/kg oral", "result": "did not significantly change"}, {"measurement": "number of lever pressing during the alarm periods", "setting": "male Wistar rats; 30 mg/kg oral", "result": "significantly increased"}, {"measurement": "number of lever pressing during the safety periods", "setting": "male Wistar rats; 30 mg/kg oral", "result": "did not significantly change"}, {"measurement": "minimal effective dose", "setting": "male Wistar rats", "result": 20, "unit": "mg/kg"}, {"measurement": "ED50", "setting": "in vivo", "result": 46, "unit": "mg/kg"}, {"measurement": "Validity [A/B]", "setting": "male ICR mice [2]", "result": 2.3}, {"measurement": "LD50", "setting": "[3]", "result": 971, "unit": "mg/kg"}]}, {"smiles": "Nn1cc(F)c(=O)[nH]c1=O", "note": "[AFU, 1-amino-5-fluorouracil]", "values": [{"measurement": "number of lever pressing during the alarm periods", "setting": "male Wistar rats; 20 mg/kg oral", "result": "significantly increased"}, {"measurement": "number of lever pressing during the safety periods", "setting": "male Wistar rats; 20 mg/kg oral", "result": "did not significantly change"}]}, {"smiles": "CN1C(=O)CN=C(c2ccccc2)c2cc(Cl)ccc21", "note": "[DZP, diazepam, reference compound]", "values": [{"measurement": "behaviors of the mice when receiving an electric shock", "setting": "male ICR mice [1]; 2 mg/kg i.p.", "result": "lack of both vocalization and escape behavior"}, {"measurement": "sensitivity of the mice to an electric shock", "setting": "male ICR mice [1]; 2 mg/kg i.p.", "result": "decreased"}, {"measurement": "number of water-drinking", "setting": "male ICR mice [1]; 2 mg/kg i.p.", "result": "significantly increased"}, {"measurement": "number of lever pressing during the alarm periods", "setting": "male Wistar rats; 5 mg/kg oral", "result": "significantly increased"}, {"measurement": "number of lever pressing during the alarm periods", "setting": "male Wistar rats; 10 mg/kg oral", "result": "significantly increased"}, {"measurement": "number of lever pressing during the alarm periods", "setting": "male Wistar rats; 20 mg/kg oral", "result": "significantly increased"}, {"measurement": "number of lever pressing during the safety periods", "setting": "male Wistar rats; 20 mg/kg oral", "result": "significantly decreased"}, {"measurement": "number of lever pressing during the safety periods", "setting": "male Wistar rats; 50 mg/kg oral", "result": "significantly decreased"}, {"measurement": "minimal effective dose", "setting": "male Wistar rats", "result": 5, "unit": "mg/kg"}, {"measurement": "ED50", "setting": "in vivo", "result": 8.8, "unit": "mg/kg"}, {"measurement": "Validity [A/B]", "setting": "male ICR mice [2]", "result": 1.8}]}, {"smiles": "CCC(C)n1c(=O)[nH]c(C)c(Br)c1=O", "note": "(stereo not shown) [bromacil]", "values": [{"measurement": "minimum effective dose for single administration", "setting": "[4]; oral, single administration", "result": 100, "unit": "mg/kg"}, {"measurement": "anxiolytic activity", "setting": "[4]; orally administered", "result": "low anxiolytic activity"}]}]}
